# Assays:
# Brain [1] = assay: Drug concentration in Sprague-Dawley rat brain assessed as 6-(4-chlorophenyl)-3-(4-(2-cyclopropyl-2-hydroxyethoxy)-3-methoxyphenyl)pyrrolo[1,2-f][1,2,4]triazin-4(3H)-one level at 3 mg/kg, po qd at 20 hrs; format: ADME, organism-based; conditions: in vivo, read-out: Drug uptake
# Brain [2] = assay: Drug concentration in Sprague-Dawley rat brain assessed as 6-(4-chlorophenyl)-3-(4-(2-cyclopropyl-2-hydroxyethoxy)-3-methoxyphenyl)pyrrolo[1,2-f][1,2,4]triazin-4(3H)-one level at 10 mg/kg, po qd at 20 hrs; format: ADME, organism-based; conditions: in vivo, read-out: Drug uptake
# Brain [3] = assay: Drug concentration in Sprague-Dawley rat brain assessed as 6-(4-chlorophenyl)-3-(4-(2-cyclopropyl-2-hydroxyethoxy)-3-methoxyphenyl)pyrrolo[1,2-f][1,2,4]triazin-4(3H)-one level at 30 mg/kg, po qd at 20 hrs; format: ADME, organism-based; conditions: in vivo, read-out: Drug uptake
# Brain [4] = assay: Free drug level in Sprague-Dawley rat brain assessed as 6-(4-chlorophenyl)-3-(4-(2-cyclopropyl-2-hydroxyethoxy)-3-methoxyphenyl)pyrrolo[1,2-f][1,2,4]triazin-4(3H)-one level at 3 mg/kg, po qd at 20 hrs; format: ADME, organism-based; conditions: in vivo
# Brain [5] = assay: Free drug level in Sprague-Dawley rat brain assessed as 6-(4-chlorophenyl)-3-(4-(2-cyclopropyl-2-hydroxyethoxy)-3-methoxyphenyl)pyrrolo[1,2-f][1,2,4]triazin-4(3H)-one level at 10 mg/kg, po qd at 20 hrs; format: ADME, organism-based; conditions: in vivo
# Brain [6] = assay: Free drug level in Sprague-Dawley rat brain assessed as 6-(4-chlorophenyl)-3-(4-(2-cyclopropyl-2-hydroxyethoxy)-3-methoxyphenyl)pyrrolo[1,2-f][1,2,4]triazin-4(3H)-one level at 30 mg/kg, po qd at 20 hrs; format: ADME, organism-based; conditions: in vivo
# Rattus norvegicus [7] = assay: Antiobesity activity in Sprague-Dawley rat assessed as body weight reduction at 3 mg/kg, po qd after 4 days relative to control; format: functional; conditions: 96 h
# Rattus norvegicus [8] = assay: Antiobesity activity in Sprague-Dawley rat assessed as body weight reduction at 10 mg/kg, po qd after 4 days relative to control; format: functional; conditions: 96 h
# Rattus norvegicus [9] = assay: Antiobesity activity in Sprague-Dawley rat assessed as body weight reduction at 30 mg/kg, po qd after 4 days relative to control; format: functional; conditions: 96 h
# [10] = Ratio of free drug level in brain of Sprague-Dawley rat assessed as 6-(4-chlorophenyl)-3-(4-(2-cyclopropyl-2-hydroxyethoxy)-3-methoxyphenyl)pyrrolo[1,2-f][1,2,4]triazin-4(3H)-one level at 3 mg/kg, po to Ki for rat MCHR1; format: ADME, organism-based; conditions: in vivo
# [11] = Ratio of free drug level in brain of Sprague-Dawley rat assessed as 6-(4-chlorophenyl)-3-(4-(2-cyclopropyl-2-hydroxyethoxy)-3-methoxyphenyl)pyrrolo[1,2-f][1,2,4]triazin-4(3H)-one level at 10 mg/kg, po to Ki for rat MCHR1; format: ADME, organism-based; conditions: in vivo
# [12] = Ratio of free drug level in brain of Sprague-Dawley rat assessed as 6-(4-chlorophenyl)-3-(4-(2-cyclopropyl-2-hydroxyethoxy)-3-methoxyphenyl)pyrrolo[1,2-f][1,2,4]triazin-4(3H)-one level at 30 mg/kg, po to Ki for rat MCHR1; format: ADME, organism-based; conditions: in vivo
# Plasma [13] = assay: Plasma concentration in Sprague-Dawley rat assessed as 6-(4-chlorophenyl)-3-(4-(2-cyclopropyl-2-hydroxyethoxy)-3-methoxyphenyl)pyrrolo[1,2-f][1,2,4]triazin-4(3H)-one level at 10 mg/kg, po qd at 8 hrs; format: ADME, organism-based; conditions: in vivo
# Brain [14] = assay: Drug concentration in Sprague-Dawley rat brain assessed as 6-(4-chlorophenyl)-3-(4-(2-cyclopropyl-2-hydroxyethoxy)-3-methoxyphenyl)pyrrolo[1,2-f][1,2,4]triazin-4(3H)-one level at 10 mg/kg, po qd at 8 hrs; format: ADME, organism-based; conditions: in vivo, read-out: Drug uptake
# Nucleic Acid [15] = assay: Ratio of drug level in Sprague-Dawley rat brain to plasma assessed as 6-(4-chlorophenyl)-3-(4-(2-cyclopropyl-2-hydroxyethoxy)-3-methoxyphenyl)pyrrolo[1,2-f][1,2,4]triazin-4(3H)-one level at 10 mg/kg, po qd; format: ADME, organism-based
# Plasma [16] = assay: Fraction unbound in Sprague-Dawley rat plasma assessed as 6-(4-chlorophenyl)-3-(4-(2-cyclopropyl-2-hydroxyethoxy)-3-methoxyphenyl)pyrrolo[1,2-f][1,2,4]triazin-4(3H)-one level; format: ADME, cell-free
# Plasma [17] = assay: Plasma concentration in Sprague-Dawley rat assessed as (S)-6-(5-chloropyrimidin-2-yl)-3-(4-(3-(ethylsulfonyl)-2-hydroxypropoxy)-3-methoxyphenyl)pyrrolo[1,2-f][1,2,4]triazin-4(3H)-one level at 10 mg/kg, po qd at 8 hrs; format: ADME, organism-based; conditions: in vivo
# Brain [18] = assay: Drug concentration in Sprague-Dawley rat brain assessed as (S)-6-(5-chloropyrimidin-2-yl)-3-(4-(3-(ethylsulfonyl)-2-hydroxypropoxy)-3-methoxyphenyl)pyrrolo[1,2-f][1,2,4]triazin-4(3H)-one level at 10 mg/kg, po qd at 8 hrs; format: ADME, organism-based; conditions: in vivo, read-out: Drug uptake
# Nucleic Acid [19] = assay: Ratio of drug level in Sprague-Dawley rat brain to plasma assessed as (S)-6-(5-chloropyrimidin-2-yl)-3-(4-(3-(ethylsulfonyl)-2-hydroxypropoxy)-3-methoxyphenyl)pyrrolo[1,2-f][1,2,4]triazin-4(3H)-one level at 10 mg/kg, po qd; format: ADME, organism-based
# Plasma [20] = assay: Plasma concentration in Sprague-Dawley rat assessed as (R)-6-(5-chloropyridin-2-yl)-3-(4-(2-cyclopropyl-2-hydroxyethoxy)-3-methoxyphenyl)pyrrolo[1,2-f][1,2,4]triazin-4(3H)-one level at 10 mg/kg, po qd at 8 hrs; format: ADME, organism-based; conditions: in vivo
# Brain [21] = assay: Drug concentration in Sprague-Dawley rat brain assessed as (R)-6-(5-chloropyridin-2-yl)-3-(4-(2-cyclopropyl-2-hydroxyethoxy)-3-methoxyphenyl)pyrrolo[1,2-f][1,2,4]triazin-4(3H)-one level at 10 mg/kg, po qd at 8 hrs; format: ADME, organism-based; conditions: in vivo, read-out: Drug uptake
# Nucleic Acid [22] = assay: Ratio of drug level in Sprague-Dawley rat brain to plasma assessed as (R)-6-(5-chloropyridin-2-yl)-3-(4-(2-cyclopropyl-2-hydroxyethoxy)-3-methoxyphenyl)pyrrolo[1,2-f][1,2,4]triazin-4(3H)-one level at 10 mg/kg, po qd; format: ADME, organism-based
# Plasma [23] = assay: Plasma concentration in Sprague-Dawley rat assessed as ((R)-6-(5-chloropyridin-2-yl)-3-(4-(3-hydroxypyrrolidin-1-yl)-3-methoxyphenyl)pyrrolo[1,2-f][1,2,4]triazin-4(3H)-one level at 10 mg/kg, po qd at 8 hrs; format: ADME, organism-based; conditions: in vivo
# Brain [24] = assay: Drug concentration in Sprague-Dawley rat brain assessed as ((R)-6-(5-chloropyridin-2-yl)-3-(4-(3-hydroxypyrrolidin-1-yl)-3-methoxyphenyl)pyrrolo[1,2-f][1,2,4]triazin-4(3H)-one level at 10 mg/kg, po qd at 8 hrs; format: ADME, organism-based; conditions: in vivo, read-out: Drug uptake
# Nucleic Acid [25] = assay: Ratio of drug level in Sprague-Dawley rat brain to plasma assessed as ((R)-6-(5-chloropyridin-2-yl)-3-(4-(3-hydroxypyrrolidin-1-yl)-3-methoxyphenyl)pyrrolo[1,2-f][1,2,4]triazin-4(3H)-one level at 10 mg/kg, po qd; format: ADME, organism-based
# Plasma [26] = assay: Plasma concentration in Sprague-Dawley rat assessed as 6-(5-chloropyrimidin-2-yl)-3-(4-(2-hydroxy-2-methylpropoxy)-3-methoxyphenyl)pyrrolo[1,2-f][1,2,4]triazin-4(3H)-one level at 5 mg/kg, po qd at 8 hrs; format: ADME, organism-based; conditions: in vivo
# Brain [27] = assay: Drug concentration in Sprague-Dawley rat brain assessed as 6-(5-chloropyrimidin-2-yl)-3-(4-(2-hydroxy-2-methylpropoxy)-3-methoxyphenyl)pyrrolo[1,2-f][1,2,4]triazin-4(3H)-one level at 5 mg/kg, po qd at 8 hrs; format: ADME, organism-based; conditions: in vivo, read-out: Drug uptake
# Nucleic Acid [28] = assay: Ratio of drug level in Sprague-Dawley rat brain to plasma assessed as 6-(5-chloropyrimidin-2-yl)-3-(4-(2-hydroxy-2-methylpropoxy)-3-methoxyphenyl)pyrrolo[1,2-f][1,2,4]triazin-4(3H)-one level at 5 mg/kg, po qd; format: ADME, organism-based
# Plasma [29] = assay: Plasma concentration in Sprague-Dawley rat assessed as (S)-6-(5-chloropyridin-2-yl)-3-(4-(3-(ethylsulfonyl)-2-hydroxypropoxy)-3-methoxyphenyl)pyrrolo[1,2-f][1,2,4]triazin-4(3H)-one level at 10 mg/kg, po qd at 8 hrs; format: ADME, organism-based; conditions: in vivo
# Brain [30] = assay: Drug concentration in Sprague-Dawley rat brain assessed as (S)-6-(5-chloropyridin-2-yl)-3-(4-(3-(ethylsulfonyl)-2-hydroxypropoxy)-3-methoxyphenyl)pyrrolo[1,2-f][1,2,4]triazin-4(3H)-one level at 10 mg/kg, po qd at 8 hrs; format: ADME, organism-based; conditions: in vivo, read-out: Drug uptake
# Nucleic Acid [31] = assay: Ratio of drug level in Sprague-Dawley rat brain to plasma assessed as (S)-6-(5-chloropyridin-2-yl)-3-(4-(3-(ethylsulfonyl)-2-hydroxypropoxy)-3-methoxyphenyl)pyrrolo[1,2-f][1,2,4]triazin-4(3H)-one level at 10 mg/kg, po qd; format: ADME, organism-based
# Plasma [32] = assay: Plasma concentration in Sprague-Dawley rat assessed as 6-(5-chloropyrimidin-2-yl)-3-(4-((3,3-difluoro-1-hydroxycyclobutyl)methoxy)-3-methoxyphenyl)pyrrolo[1,2-f][1,2,4]triazin-4(3H)-one level at 10 mg/kg, po qd at 8 hrs; format: ADME, organism-based; conditions: in vivo
# Brain [33] = assay: Drug concentration in Sprague-Dawley rat brain assessed as 6-(5-chloropyrimidin-2-yl)-3-(4-((3,3-difluoro-1-hydroxycyclobutyl)methoxy)-3-methoxyphenyl)pyrrolo[1,2-f][1,2,4]triazin-4(3H)-one level at 10 mg/kg, po qd at 8 hrs; format: ADME, organism-based; conditions: in vivo, read-out: Drug uptake
# Nucleic Acid [34] = assay: Ratio of drug level in Sprague-Dawley rat brain to plasma assessed as 6-(5-chloropyrimidin-2-yl)-3-(4-((3,3-difluoro-1-hydroxycyclobutyl)methoxy)-3-methoxyphenyl)pyrrolo[1,2-f][1,2,4]triazin-4(3H)-one level at 10 mg/kg, po qd; format: ADME, organism-based
compound,measurement,setting,value
COc1cc(-n2cnn3cc(-c4ccc(Cl)cc4)cc3c2=O)ccc1OCC(OC(=O)[C@@H](N)C(C)C)C1CC1 (some centres undefined),concentration,Brain [1],3420 nM
same,concentration,Brain [2],7980 nM
same,concentration,Brain [3],14800 nM
same,Drug uptake(free),Brain [4],10 nM
same,Drug uptake(free),Brain [5],24 nM
same,Drug uptake(free),Brain [6],44 nM
same,inhibition in vivo at 3 mg/kg,Rattus norvegicus [7],0%
same,inhibition in vivo at 10 mg/kg,Rattus norvegicus [8],0%
same,inhibition in vivo at 30 mg/kg,Rattus norvegicus [9],2.5%
same,Ratio,[10],3.6
same,Ratio,[11],8.6
same,Ratio,[12],16
same,concentration,Plasma [13],1250 nM
same,concentration,Brain [14],3740 nM
same,BPR,Nucleic Acid [15],3
same,Fu,Plasma [16],0.3%
CCS(=O)(=O)C[C@H](COc1ccc(-n2cnn3cc(-c4ncc(Cl)cn4)cc3c2=O)cc1OC)OC(=O)CN,concentration,Plasma [17],3960 nM
same,concentration,Brain [18],125 nM
same,BPR,Nucleic Acid [19],0.03
COc1cc(-n2cnn3cc(-c4ccc(Cl)cn4)cc3c2=O)ccc1OC[C@H](OC(=O)CN)C1CC1,concentration,Plasma [20],7450 nM
same,concentration,Brain [21],1150 nM
same,BPR,Nucleic Acid [22],0.2
COc1cc(-n2cnn3cc(-c4ccc(Cl)cn4)cc3c2=O)ccc1N1CC[C@@H](OC(=O)[C@@H](N)C(C)C)C1,concentration,Plasma [23],4590 nM
same,concentration,Brain [24],664 nM
same,BPR,Nucleic Acid [25],0.1
COc1cc(-n2cnn3cc(-c4ncc(Cl)cn4)cc3c2=O)ccc1OCC(C)(C)OC(=O)CN,concentration,Plasma [26],2710 nM
same,concentration,Brain [27],1430 nM
same,BPR,Nucleic Acid [28],0.5
CCS(=O)(=O)C[C@H](COc1ccc(-n2cnn3cc(-c4ccc(Cl)cn4)cc3c2=O)cc1OC)OC(=O)CN,concentration,Plasma [29],15600 nM
same,concentration,Brain [30],401 nM
same,BPR,Nucleic Acid [31],0.03
COc1cc(-n2cnn3cc(-c4ncc(Cl)cn4)cc3c2=O)ccc1OCC1(OC(=O)CN)CC(F)(F)C1,concentration,Plasma [32],1130 nM
same,concentration,Brain [33],805 nM
same,BPR,Nucleic Acid [34],0.7
